Measured values published in patent US20070203163A1, “Novel Treatment Of Irritable Bowel Syndrome 1” (priority 2003, published 2007).

System: visceromotor response to colorectal distension
Test: Visceromotor response to isobaric colorectal distension in rats
Format: in vivo, rats (Sprague Dawley)
Description: In this study the effect of acute administration of a compound on the visceromotor response to isobaric colorectal distension in rats is investigated (Ritchie J. Pain from distension of the pelvic colon by inflating a balloon in the irritable bowel syndrome. Gut 1973; 6: 105-112. Ness T J, Gebhart G F. Colorectal distension as a noxious visceral stimulus: physiological and pharmacological characterization of pseudoeffective reflexes in the rat. Brain Research 1988; 450: 153-169).
Colorectal distension (CRD) is performed in all rats (Sprague Dawley) using a paradigm of 12 consecutive distensions (or pulses) at 80 mmHg for 30 seconds each with 4.5 minute intervals (12×80 mmHg). The visceromotor respbnse is determined by quantifying phasic changes in the balloon pressure, which is processed by specially designed computer software. The compound is dissolved in saline and administered at the doses of 1, 3 and 10 μmol/kg. The compound is given intravenously in a volume of 1 mL/kg between the third and fourth distension.

Row | Structure (SMILES) | effect on visceromotor response (VMR) to colorectal distension (1 μmol/kg i.v.) | effect on visceromotor response (VMR) to colorectal distension (3 μmol/kg i.v.) | effect on visceromotor response (VMR) to colorectal distension (10 μmol/kg i.v.) | average visceromotor response (VMR) during colorectal distension, relative to vehicle treated (100±19) (10 μmol/kg i.v., CRD 12×80 mmHg, mean±SEM, n=8)
1 | Cc1cccc(C#Cc2ccccc2)n1 [MPEP, 2-methyl-6-(phenylethynyl)-pyridine] | No effect | modest effect during a few distensions only | decreased the visceromotor response (VMR) | 46±11%
2 | COCc1cc(C#N)cc(-c2nc(-c3ccc(F)cn3)no2)c1 [3-[3-(5-Fluoro-pyridin-2-yl)-[1,2,4]oxadiazol-5-yl]-5-methoxymethyl-benzonitrile] | transient inhibitory effect | – | – | –
